In patent publication US20200333324A1, “METHOD OF PREDICTING CLINICAL OUTCOME OF ANTICANCER AGENTS” (MITRA RXDX, INC., priority 2017, published 2020):

Columns and labels:
Type in all cases: cell-based, human
[1] = tested on: Tumor sections; assay: FACS analysis for CD25, CD127 and FOXP3 expression, tumor sections
Description: The effect of treatment with Nivolumab and Pembrolizumab on CD25, CD127, and FOXP3 expression was then evaluated. Tumor sections or PBNCs from the same patient cultured for 3 days in the tumor microenvironment platform were treated with Pembrolizumab, Nivolumab, or IgG control for one day followed by FACS analysis for expression of CD25, CD127, and FOXP3.

[2] = tested on: HNSCC tumor tissue; assay: IHC for CD8, PD-L1, PD-1 and FOXP3 positive cells in tumor microenvironment platform; settings: T3
Description: The effect of Pembrolizumab and Nivolumab on CD8^+ T cell tumor infiltration was then evaluated. Tumor sections from the same patient cultured for 72 hours in the tumor microenvironment platform were treated with Pembrolizumab, Nivolumab, or IgG as control and stained for H&E, Ki67, Caspase 3, and CD8 at day 3 in culture (T3). Baseline staining was determined at TO. […] To further elucidate the effects of the anti-PD-1 antibodies, FACS analysis was performed on tumor tissue from patient 2941 and patient 2942 treated with either Pembrolizumab, Nivolumab, or IgG control. […] By contrast, there was no effect of either Pembrolizumab or Nivolumab on CD8^+ T cell infiltration for patient 2942, further highlighting the differential response between individuals to PD-1 blockade. CD8^+ T cell infiltration was evaluated in the tumor microenvironment platform with tumor tissue from the same patient, and comparisons for control vs Nivo, control vs Pembro, Nivo vs Pembro, and control vs Nivo vs Pembro for multiple patients are shown in FIG. 6 (each line represents results from the tumor microenvironment platform cultured with tumor tissue from a single individual).
The effect of Pembrolizumab and Nivolumab on the expression of immunoregulatory molecules, including PD-1 and FOXP3, in the tumor microenvironment platform tumor microbed was evaluated. Tumor sections from the same patient cultured for 3 days (72 hours) in the tumor microenvironment platform were treated with Pembrolizumab, Nivolumab, or IgG control and stained for CD8, FOXP3, and PD-1 at day 3 in culture (T3). Baseline staining was determined at TO. Results are shown in FIG. 7A for tumor sections from a predicted responder to Pembrolizumab or Nivolumab and FIG. 7B for a predicted non-responder to Pembrolizumab or Nivolumab, as characterized by M-score. There was in increase in the number of PD-1^+ cells in the tumor microbed for both Pembrolizumab and Nivolumab, which was to a greater degree in the case of Nivolumab, when compared to IgG control in the responder (FIG. 7A). There was no change for either Pembrolizumab and Nivolumab in the non-responder (FIG. 7B). The numbers of PD-L1^+ tumor cells, PD-1^+ T cells, FOXP3^+ T-regulatory cells, and CD8^+ T cells were evaluated using the tumor microenvironment platform with tumor tissue from the same patient in Nivolumab, Pembrolizumab, and control conditions, and are summarized in Table 3. Comparisons for control vs Nivo, control vs Pembro, Nivo vs Pembro, and control vs Nivo vs Pembro for multiple patients are shown in FIG. 8 (each line represents results from the tumor microenvironment platform cultured with tumor tissue from a single individual).

[3] = tested on: HNSCC tumor tissue; assay: M-score clinical outcome predictor: tumor microenvironment platform assays (WST-1, LDH, ATP, glucose uptake, Caspase 3/8, Ki67, H&E) input into machine-trained algorithm; set-up: scale not given here
From the text: Utilizing primary and late stage HNSCC patient samples (n=16) we interrogated phenotypic response to both Pembrolizumab (KEYTRUDA) and Nivolumab (OPDIVO), two FDA-approved PD-1 inhibitors, as single agents on the tumor microenvironment platform with tumor tissue from the same patient. To do this, we assayed tumor proliferation (Ki67) and apoptosis (active caspase-3), in addition to using a comprehensive panel of immunological assays to evaluate changes in the immune compartment (CD8, CD45, FOXP3, CXCR4, CD68, PDL1, PD1) and cytokine profile (IL6, IL8, IFN-g and IL12).

## Nivolumab
[1]; Non-Responder, control 6.52
  CD25^+/FOXP3^− Tumor (% total cells): 6.45 % total cells
[1]; Non-Responder, control 19.6
  CD25^+/CD127^+ Tumor (% total cells): 16.1 % total cells
[1]; Non-Responder, control 22.1
  CD25^−/CD127^− Tumor (% total cells): 21.7 % total cells
[1]; Non-Responder, control 23.6
  CD25^−/FOXP3^− Tumor (% total cells): 17.5 % total cells
[1]; Non-Responder, control 25.4
  CD25^+/CD127^− Tumor (% total cells): 22.1 % total cells
[1]; Non-Responder, control 33.0
  CD25^−/CD127^+ Tumor (% total cells): 40.1 % total cells
[1]; Non-Responder, control 34.4
  CD25^+/FOXP3^+ Tumor (% total cells): 29.5 % total cells
[1]; Non-Responder, control 35.5
  CD25^− FOXP3^+ Tumor (% total cells): 46.5 % total cells
[1]; Responder, control 12.2
  CD25^−/CD127^− Tumor (% total cells): 15.6 % total cells
[1]; Responder, control 18.9
  CD25^− FOXP3^+ Tumor (% total cells): 45.7 % total cells
[1]; Responder, control 20.3
  CD25^−/FOXP3^− Tumor (% total cells): 4.62 % total cells
[1]; Responder, control 23.0
  CD25^+/CD127^− Tumor (% total cells): 25.4 % total cells
[1]; Responder, control 24.3
  CD25^−/CD127^+ Tumor (% total cells): 31.8 % total cells
[1]; Responder, control 25.7
  CD25^+/FOXP3^− Tumor (% total cells): 5.20 % total cells
[1]; Responder, control 35.1
  CD25^+/FOXP3^+ Tumor (% total cells): 44.5 % total cells
[1]; Responder, control 40.5
  CD25^+/CD127^+ Tumor (% total cells): 27.2 % total cells
[1]; platform containing tumor tissue
  functional Treg cells (CD25, CD127, FOXP3 FACS): patient sample-dependent functional Treg cell depression
[2]; Patient ID 2916, control 0
  # cells/field PD-1^+: 0 cells/field
[2]; Patient ID 2916, control 1
  # cells/field PD-L1^+: 2 cells/field
[2]; Patient ID 2916, control 3
  # cells/field FOXP3^+: 4 cells/field
[2]; Patient ID 2916, control 20
  # cells/field CD8^+: 30 cells/field
[2]; Patient ID 2918, control 2
  # cells/field PD-1^+: 0 cells/field
[2]; Patient ID 2918, control 3
  # cells/field FOXP3^+: 2 cells/field
[2]; Patient ID 2918, control 10
  # cells/field CD8^+: 3 cells/field
  # cells/field PD-L1^+: 20 cells/field
[2]; Patient ID 2926, control 0
  # cells/field PD-1^+: 0 cells/field
[2]; Patient ID 2926, control 3
  # cells/field PD-L1^+: 3 cells/field
[2]; Patient ID 2926, control 4
  # cells/field FOXP3^+: 3 cells/field
[2]; Patient ID 2926, control 25
  # cells/field CD8^+: 20 cells/field
[2]; Patient ID 2928, control 0
  # cells/field PD-1^+: 0 cells/field
  # cells/field PD-L1^+: 3 cells/field
[2]; Patient ID 2928, control 4
  # cells/field CD8^+: 15 cells/field
  # cells/field FOXP3^+: 5 cells/field
[2]; Patient ID 2939, control 0
  # cells/field CD8^+: 2 cells/field
  # cells/field PD-1^+: 0 cells/field
[2]; Patient ID 2939, control 1
  # cells/field FOXP3^+: 2 cells/field
[2]; Patient ID 2939, control 10
  # cells/field PD-L1^+: 10 cells/field
[2]; Patient ID 2941, control 0
  # cells/field PD-1^+: 2 cells/field
[2]; Patient ID 2941, control 3
  # cells/field FOXP3^+: 2 cells/field
  # cells/field PD-L1^+: 5 cells/field
[2]; Patient ID 2941, control 5
  # cells/field CD8^+: 3 cells/field
[2]; Patient ID 2942, control 0
  # cells/field PD-1^+: 0 cells/field
  # cells/field PD-L1^+: 0 cells/field
[2]; Patient ID 2942, control 3
  # cells/field CD8^+: 1 cells/field
  # cells/field FOXP3^+: 4 cells/field
[2]; Patient ID 2948, control 1
  # cells/field FOXP3^+: 1 cells/field
  # cells/field PD-1^+: 0 cells/field
[2]; Patient ID 2948, control 10
  # cells/field PD-L1^+: 1 cells/field
[2]; Patient ID 2948, control 20
  # cells/field CD8^+: 20 cells/field
[2]; Patient ID 2949, control 1
  # cells/field PD-1^+: 3 cells/field
[2]; Patient ID 2949, control 5
  # cells/field FOXP3^+: 5 cells/field
[2]; Patient ID 2949, control 20
  # cells/field PD-L1^+: 20 cells/field
[2]; Patient ID 2949, control 50
  # cells/field CD8^+: 35 cells/field
[2]; Patient ID 2956, control 0
  # cells/field PD-1^+: 0 cells/field
[2]; Patient ID 2956, control 1
  # cells/field CD8^+: 7 cells/field
[2]; Patient ID 2956, control 2
  # cells/field PD-L1^+: 3 cells/field
[2]; Patient ID 2956, control 8
  # cells/field FOXP3^+: 10 cells/field
[2]; Patient ID 2963, control 0
  # cells/field PD-1^+: 0 cells/field
[2]; Patient ID 2963, control 6
  # cells/field CD8^+: 4 cells/field
[2]; Patient ID 2963, control 10
  # cells/field FOXP3^+: 2 cells/field
[2]; Patient ID 2963, control 12
  # cells/field PD-L1^+: 12 cells/field
[2]; Patient ID 2978, control 0
  # cells/field PD-1^+: 0 cells/field
[2]; Patient ID 2978, control 1
  # cells/field FOXP3^+: 1 cells/field
  # cells/field PD-L1^+: 1 cells/field
[2]; Patient ID 2978, control 12
  # cells/field CD8^+: 17 cells/field
[2]; Patient ID 2979, control 0
  # cells/field PD-1^+: 0 cells/field
[2]; Patient ID 2979, control 2
  # cells/field FOXP3^+: 1 cells/field
[2]; Patient ID 2979, control 5
  # cells/field PD-L1^+: 5 cells/field
[2]; Patient ID 2979, control 25
  # cells/field CD8^+: 25 cells/field
[2]; Patient ID 2980, control 0
  # cells/field PD-1^+: 0 cells/field
[2]; Patient ID 2980, control 1
  # cells/field FOXP3^+: 1 cells/field
[2]; Patient ID 2980, control 8
  # cells/field PD-L1^+: 1 cells/field
[2]; Patient ID 2980, control 30
  # cells/field CD8^+: 10 cells/field
[2]; Patient ID 2981, control 0
  # cells/field FOXP3^+: 1 cells/field
  # cells/field PD-1^+: 0 cells/field
  # cells/field PD-L1^+: 0 cells/field
[2]; Patient ID 2981, control 1
  # cells/field CD8^+: 15 cells/field
[2]; patient 2941, vs IgG control
  CD8^+ T cell infiltration (IHC): increased CD8^+ T cell infiltration
[2]; predicted non-responder, vs IgG control
  number of PD-1^+ cells in the tumor microbed: no change
[2]; predicted responder, vs IgG control, to a greater degree in the case of Nivolumab
  number of PD-1^+ cells in the tumor microbed: increase
[3]; Patient ID 2918
  M-score: 27
[3]; Patient ID 2928
  M-score: 19
[3]; Patient ID 2941
  M-score: 41
[3]; Patient ID 2948
  M-score: 12
[3]; Patient ID 2949
  M-score: 11
[3]; Patient ID 2956
  M-score: 10
[3]; Patient ID 2978
  M-score: 33
[3]; Patient ID 2981
  M-score: 6
